Results from ChEMBL document CHEMBL3039007, “Structure-based identification of OATP1B1/3 inhibitors” (Mol Pharmacol, 2013).

Legend:
[1] = biological target: T1, Solute carrier organic anion transporter family member 1B1 (Homo sapiens, UniProt Q9Y6L6); settings: chinese hamster, cho, 10 µM
T1 sequence (Q9Y6L6 whole entry): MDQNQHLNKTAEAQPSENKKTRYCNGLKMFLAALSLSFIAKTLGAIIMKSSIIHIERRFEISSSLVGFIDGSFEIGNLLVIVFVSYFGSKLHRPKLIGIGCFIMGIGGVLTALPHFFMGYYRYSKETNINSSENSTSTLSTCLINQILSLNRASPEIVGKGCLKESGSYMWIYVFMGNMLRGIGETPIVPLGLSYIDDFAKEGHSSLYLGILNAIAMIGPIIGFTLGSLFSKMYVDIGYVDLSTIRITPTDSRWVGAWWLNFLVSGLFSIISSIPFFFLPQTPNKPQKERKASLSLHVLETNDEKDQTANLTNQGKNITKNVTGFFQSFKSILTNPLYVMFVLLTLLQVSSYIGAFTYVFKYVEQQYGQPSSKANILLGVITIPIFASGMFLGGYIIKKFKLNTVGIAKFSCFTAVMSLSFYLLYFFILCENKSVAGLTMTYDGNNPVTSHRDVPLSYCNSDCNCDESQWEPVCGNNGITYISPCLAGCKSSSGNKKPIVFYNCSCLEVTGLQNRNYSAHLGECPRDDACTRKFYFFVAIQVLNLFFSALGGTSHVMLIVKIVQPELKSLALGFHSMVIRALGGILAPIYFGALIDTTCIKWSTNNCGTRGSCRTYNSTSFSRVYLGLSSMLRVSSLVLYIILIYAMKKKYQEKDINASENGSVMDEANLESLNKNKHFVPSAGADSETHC

[2] = biological target: T2, Solute carrier organic anion transporter family member 1B3 (Homo sapiens, UniProt Q9NPD5); settings: chinese hamster, cho, 10 µM
T2 sequence (Q9NPD5 whole entry): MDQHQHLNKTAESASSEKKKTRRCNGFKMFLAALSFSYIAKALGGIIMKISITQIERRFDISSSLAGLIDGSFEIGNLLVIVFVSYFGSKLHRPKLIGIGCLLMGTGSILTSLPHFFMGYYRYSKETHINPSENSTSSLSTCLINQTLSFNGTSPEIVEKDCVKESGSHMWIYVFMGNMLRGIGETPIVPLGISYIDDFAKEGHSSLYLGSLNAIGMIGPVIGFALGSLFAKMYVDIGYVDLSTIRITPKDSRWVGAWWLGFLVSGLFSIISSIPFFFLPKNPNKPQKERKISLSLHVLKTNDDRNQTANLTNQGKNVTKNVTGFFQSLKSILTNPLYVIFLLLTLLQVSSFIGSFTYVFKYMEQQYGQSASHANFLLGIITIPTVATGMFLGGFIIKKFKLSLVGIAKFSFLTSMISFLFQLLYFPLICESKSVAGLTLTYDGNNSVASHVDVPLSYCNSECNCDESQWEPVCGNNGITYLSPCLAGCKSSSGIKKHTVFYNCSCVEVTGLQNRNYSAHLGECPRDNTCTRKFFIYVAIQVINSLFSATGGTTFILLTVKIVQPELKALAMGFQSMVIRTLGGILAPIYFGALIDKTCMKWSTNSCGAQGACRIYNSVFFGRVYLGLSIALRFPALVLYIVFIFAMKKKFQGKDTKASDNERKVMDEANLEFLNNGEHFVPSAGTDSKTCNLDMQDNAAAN

Structure (SMILES) | residual activity [1] [%] | residual activity [2] [%]
CCN(CC)CCCC(C)Nc1ccnc2cc(Cl)ccc12.O=P(O)(O)O.O=P(O)(O)O (stereo unspecified) [CHLOROQUINE PHOSPHATE] | 84.34 | 99.18
COc1ccc(C(=O)O)c(O)c1OC [2-HYDROXY-3,4-DIMETHOXYBENZOIC ACID] | 82.39 | 82.78
CC[C@]12CCCN3CCc4c(n(c5ccccc45)[C@@](O)(C(=O)OC)C1)[C@@H]32 [VINCAMINE] | 72.87 | 88.88
CC(C)NCC(O)c1ccc2ccccc2c1.Cl (stereo unspecified) | 83.88 | 87.91
OCC(O)Cc1ccc2c(c1)OCO2 (stereo unspecified) [SAFROLGLYCOL] | 82.94 | 83.74
N=C(N)NCCC[C@@H](NC(=O)[C@@H](N)Cc1ccc(O)cc1)C(=O)O [d[-Arg-2]KYOTORPHAN ACETATE] | 114.8 | 98.23
CC(=O)O[C@H]1C[C@@H](OC(C)=O)C(C)(C)[C@@H]2C[C@@H](OC(C)=O)[C@@]3(C)C4=CC(=O)O[C@@H](c5ccoc5)[C@]4(C)CC[C@@H]3[C@@]12C | 107.2 | 104.2
N=C(NCCC[C@H](N)C(=O)O)N[N+](=O)[O-] [NITROARGININE] | 113.4 | 113.8
CC1(C)C(=O)[C@@H]2O[C@@H]2[C@]2(C)[C@H]3CC[C@@]4(C)[C@H](c5ccoc5)OC(=O)[C@H]5O[C@]54[C@]3(C)C(=O)C[C@@H]12 | 68.02 | 74.75
CC(C)CCC[C@@H](C)[C@H]1CC[C@H]2[C@@H]3CC=C4C[C@@H](O)CC[C@]4(C)[C@H]3CC[C@]12C [CHOLESTEROL] | 95.51 | 100
O=C(O)c1ccccc1OP(=O)(O)O [FOSFOSAL] | 68.68 | 92.75
Cc1occc(=O)c1/C=C/O [2-METHYL-3-HYDROXYETHYLENEPYRAN-4-ONE] | 96.24 | 107
Nc1c2c(nc3ccccc13)CCCC2O.O=C(O)/C=C\C(=O)O (stereo unspecified) [VELNACRINE MALEATE] | 103.3 | 96.75
O=S(=O)([O-])CCS.[Na+] [MESNA] | 95.36 | 97.81
C[C@@H]1CC(Cl)CC[C@H]1C(=O)OC(C)(C)C.C[C@@H]1CCC(Cl)C[C@H]1C(=O)OC(C)(C)C (stereo partly specified) | 121 | 115.1
CC(=O)c1c(O)cc(O)cc1O [2,4,6-TRIHYDROXYACETOPHENONE] | 72.12 | 92.98
Cl.Nc1ccc(/N=N/c2ccccc2)c(N)n1 [PHENAZOPYRIDINE HYDROCHLORIDE] | 115.4 | 115.3
C[N+](C)(C)CCCCCC[N+](C)(C)C.[Br-].[Br-] [HEXAMETHONIUM BROMIDE] | 76.07 | 77.59
CC(=O)O[C@]1(C(C)=O)CC[C@H]2[C@@H]3C=C(Cl)C4=CC(=O)CC[C@]4(C)[C@H]3CC[C@@]21C [CHLORMADINONE ACETATE] | 9.748 | 24.36
c1ccc(/N=N/c2ccccc2)cc1 [AZOBENZENE] | 216.3 | 112.1
CC(=O)N[C@@H]1[C@@H](O)[C@H](O)[C@@H](CO)O[C@H]1O [N-ACETYLGLUCOSAMINE] | 48.98 | 82.99
COc1cccc(OC)c1C(=O)N[C@@H]1C(=O)N2[C@@H]1SC(C)(C)[C@@H]2C(=O)[O-].[Na+] | 68.38 | 108.8
CC(C(=O)O)c1ccc(-c2ccccc2)c(F)c1 (stereo unspecified) [FLURBIPROFEN] | 227 | 98.28
C[N+](C)(C)CCOC(N)=O.[Cl-] [CARBACHOL] | 120.9 | 105.7

Structure (SMILES) | residual activity [1] [%] | residual activity [2] [%]
CO[C@H]1C[C@H](O[C@H]2CC[C@@]3(C)[C@H](CC[C@@H]4[C@@H]3CC[C@]3(C)[C@@H](C5=CC(=O)OC5)[C@@H](OC(C)=O)C[C@]43O)C2)O[C@@H](C)[C@@H]1O [OLEANDRIN] | 111.5 | 91.7
CN(C)CCCN1c2ccccc2Sc2ccc(Cl)cc21 [CHLORPROMAZINE] | 99.49 | 97.66
CNc1ccccc1C(=O)O | 90.95 | 100.4
C[C@]12C=CC(=O)C=C1CC[C@H]1[C@@H]3C[C@@H](O)[C@](O)(C(=O)CO)[C@@]3(C)C[C@H](O)[C@@]12F [TRIAMCINOLONE] | 70.81 | 81.81
CN[C@H](CC(=O)O)C(=O)O [N-METHYL-D-ASPARTIC ACID (NMDA)] | 101.6 | 98.22
O=C1C[C@@H](c2ccccc2)Oc2cc(O)cc(O)c21 [PINOCEMBRIN] | 202 | 97.25
COc1ccc2c(c1)OC/C(=C/c1ccc(O)c(O)c1)C2=O [SAPPANONE A 7-METHYL ETHER] | 159.5 | 107.8
COc1c(OC)c2occc2c2oc(=O)ccc12 [PIMPINELLIN] | 104.9 | 103.2
O=C(O)c1nc2cc(Cl)c(Cl)cc2nc1O [6,7-DICHLORO-3-HYDROXY-2-QUINOXALINECARBOXYLIC ACID] | 119 | 108
COc1ccc([C@@H]2CC(=O)c3c(O)cc(O)cc3O2)cc1O [HESPERETIN] | 98.42 | 113.3
COc1cc([C@@H]2c3cc4c(cc3[C@H](O)[C@H]3COC(=O)[C@H]23)OCO4)cc(OC)c1OC [PODOFILOX] | 63.87 | 95.19
CC(C)=CCOc1c2occc2cc2ccc(=O)oc12 [PENTOSALEN] | 222.8 | 131.4
C=C1C(=O)O[C@@H]2C[C@@]3(C)CCC[C@H](C)C3=C[C@H]12 [HELENINE] | 116 | 115.2
O=C(O)c1cc2cc(F)ccc2[nH]1 [5-FLUOROINDOLE-2-CARBOXYLIC ACID] | 108.9 | 103.9
COc1ccc2c(c1)OCc1c-2oc2cc(OC)ccc12 [DEHYDROVARIABILIN] | 136.9 | 89.07
Cn1c(=O)c2c(ncn2CCCl)n(C)c1=O [7-CHLOROETHYLTHEOPHYLLINE] | 90.03 | 97.15
COc1ccc2[nH]cc(CCN)c2c1 [5-METHOXYTRYPTAMINE] | 59.83 | 73.24
Cl.c1ccc2c(c1)CN1CCCC1=N2 [DESOXYPEGANINE HYDROCHLORIDE] | 132 | 113.9
O=c1c(O)c(-c2ccc(O)c(O)c2)oc2cc(O)ccc12 [FISETIN] | 56.32 | 108.5
CN1CCC(=C2c3ccccc3CC(=O)c3sccc32)CC1.O=C(O)/C=C/C(=O)O [KETOTIFEN FUMARATE] | 94.79 | 89.36
O=C(O)[C@H](O)[C@@](O)(Cc1ccc(O)cc1)C(=O)O [PISCIDIC ACID] | 92.25 | 90.37
COc1ccc(C(=O)c2ccc(O)cc2)c(O)c1O [2,3,4'-TRIHYDROXY-4-METHOXYBENZOPHENONE] | 114.8 | 112.1
COc1cc2c3cc1Oc1cc(ccc1O)CC1c4c(cc(OC)c(O)c4Oc4ccc(cc4)CC3N(C)CC2)CCN1C (stereo unspecified) [BEBEERINE] | 53.34 | 74.29
Cn1c(=O)c2[nH]c(C3CCCC3)nc2n(C)c1=O [8-CYCLOPENTYLTHEOPHYLLINE] | 111.5 | 94.04
